Measurements from article PMC7559125 (Pathogens, 2020).
Like-named read-outs stand apart in the source and are kept apart here.

Columns and labels:
[1] = test system: A/Hiroshima/13/2016 (H275Y/G147R)
[2] = test system: A/Ibaraki/54/2016 (H275Y/I223K)
[3] = test system: A/Hiroshima/57/2014 (H275Y/I223R)
[4] = test system: A/Yokohama/94/2016 (H275Y)
A/Osaka/8/2014 (H275Y) [5] = test system: A/Osaka/8/2014 (H275Y)
[6] = test system: All viruses tested (dual H275Y, single H275Y, wild-type)
A/Aichi/83/2016 (H275Y) [7] = test system: A/Aichi/83/2016 (H275Y)
[8] = test system: A/Hiroshima/57/2014 (H275Y/I223R); remark: listed apart in the source
A/Aichi/83/2016 (H275Y) [9] = test system: A/Aichi/83/2016 (H275Y); remark: listed apart in the source
A/Osaka/8/2014 (H275Y) [10] = test system: A/Osaka/8/2014 (H275Y); remark: listed apart in the source
[11] = test system: A/Hiroshima/13/2016 (H275Y/G147R); remark: listed apart in the source
[12] = test system: All viruses tested (dual H275Y, single H275Y, wild-type); remark: listed apart in the source
[13] = test system: A/Yokohama/94/2016 (H275Y); remark: listed apart in the source
[14] = test system: A/Ibaraki/54/2016 (H275Y/I223K); remark: listed apart in the source
[15] = test system: neuraminidase of the dual H275Y mutant viruses
[16] = molecular target: neuraminidase of A/Hiroshima/13/2016 (H275Y/G147R) (Influenza A virus, UniProt A0A0X9QTS2, G147R/H275Y)
[17] = molecular target: neuraminidase of A/Osaka/8/2014 (H275Y) (Influenza A virus, UniProt W8DXJ8, H275Y)
[18] = molecular target: neuraminidase of A/Hiroshima/57/2014 (H275Y/I223R) (Influenza A virus, UniProt W8DXJ8, H275Y/I223R)
[19] = molecular target: neuraminidase of A/Aichi/83/2016 (H275Y) (Influenza A virus, UniProt A0A0X9QTS2, H275Y)
[20] = molecular target: neuraminidase of A/Ibaraki/54/2016 (H275Y/I223K) (Influenza A virus, UniProt A0A0X9QTS2, H275Y/I223K)
[21] = molecular target: neuraminidase of A/Yokohama/94/2016 (H275Y) (Influenza A virus, UniProt A0A0X9QTS2, H275Y)

With `O=C1c2c(O)c(=O)ccn2N([C@@H]2c3ccccc3SCc3c2ccc(F)c3F)[C@@H]2COCCN12` [Baloxavir, Baloxavir acid] the “Fold-change in IC50 compared with the wild-type virus” value (“Fold-change in IC50” below) [1] was 10.59 (1.0) fold, the IC50 [1] was 0.0106 µM and the “Fold-change in IC50” value [2] was 7.24 (1.2) fold. For the same molecule, the IC50 [2] was 0.00724 µM, the “Fold-change in IC50” value [3] was 8.34 (2.1) fold and the IC50 [3] was 0.00834 µM. The “Fold-change in IC50” value [4] was 3.49 (0.6) fold, the IC50 [4] was 0.00349 µM and the “Fold-change in IC50” value (A/Osaka/8/2014 (H275Y) [5]) was 5.10 (1.3) fold. For the same molecule, the IC50 (A/Osaka/8/2014 (H275Y) [5]) was 0.0051 µM, the “Susceptibility of all viruses tested (in words)” value [6] was “susceptible” and the “Fold-change in IC50” value (A/Aichi/83/2016 (H275Y) [7]) was 10.18 (0.9) fold. For the same molecule, the IC50 (A/Aichi/83/2016 (H275Y) [7]) was 0.0102 µM.
With `NC(=O)c1nc(F)c[nH]c1=O` [Favipiravir, favipiravir] the EC50 [8] was 7.99 µM, the “Fold-change in EC50 compared with the wild-type virus” value (“Fold-change in EC50” below) [8] was 7.99 (1.2) fold and the EC50 (A/Aichi/83/2016 (H275Y) [9]) was 14.8 µM. The “Fold-change in EC50” value (A/Aichi/83/2016 (H275Y) [9]) was 14.83 (1.7) fold, the EC50 (A/Osaka/8/2014 (H275Y) [10]) was 4.76 µM and the “Fold-change in EC50” value (A/Osaka/8/2014 (H275Y) [10]) was 4.76 (0.7) fold. The EC50 [11] was 15.1 µM, the “Fold-change in EC50” value [11] was 15.13 (1.7) fold and the “Susceptibility of all viruses tested (in words)” value [12] was “susceptible”. The EC50 [13] was 21.4 µM, the “Fold-change in EC50” value [13] was 21.40 (2.1) fold and the EC50 [14] was 10.2 µM. The “Fold-change in EC50” value [14] was 10.20 (1.0) fold.
With `[H]/N=C(\N)N[C@H]1C=C(C(=O)O)O[C@@H]([C@H](OC)[C@H](O)CO)[C@@H]1NC(C)=O` [Laninamivir] the “Susceptibility of the H275Y/I223R and H275Y/I223K mutant viruses (in words)” value [15] was “reduced susceptibility” and the “Susceptibility of the H275Y/G147R mutant virus (in words)” value [16] was “retained susceptibility”.
With `CCC(CC)[C@H](NC(C)=O)[C@@H]1[C@H](O)[C@@H](C(=O)O)C[C@H]1N=C(N)N.O.O.O` [Peramivir, peramivir trihydrate] the “Fold-change in IC50” value [17] was 28.25 (2,800) fold, the IC50 [17] was 0.0283 µM and the “Fold-change in IC50” value [18] was 944.20 (94,000) fold. The IC50 [18] was 0.944 µM, the “Susceptibility of the H275Y/I223R, H275Y/I223K and H275Y/G147R mutant viruses (in words)” value [15] was “enhanced cross-resistance” and the “Fold-change in IC50” value [19] was 31.93 (400) fold. The IC50 [19] was 0.0319 µM, the “Fold-change in IC50” value [16] was 114.14 (1,400) fold and the IC50 [16] was 0.114 µM. For the same molecule, the “Fold-change in IC50” value [20] was 501.62 (7,200) fold, the IC50 [20] was 0.502 µM and the “Fold-change in IC50” value [21] was 20.88 (300) fold. For the same molecule, the IC50 [21] was 0.0209 µM.
For `CC(=O)N[C@H]1[C@H]([C@H](O)[C@H](O)CO)OC(C(=O)O)=C[C@@H]1N=C(N)N` [Zanamivir, zanamivir hydrate], the “Susceptibility of the H275Y/I223R, H275Y/I223K and H275Y/G147R mutant viruses (in words)” value [15] was “reduced susceptibility”.
